Source: patent US20060099586A1, “Eef1a2 for use in the prognosis, diagnosis, and treatment of cancer” (priority 2002, published 2006)

Assays:
[1] = test system: EEF1A1 mRNA; test: EEF1A1 mRNA levels after antisense oligonucleotide treatment of human Ramos cells; type: cell-based
Excerpt: (§1) Antisense inactivation of EEF1A2 was achieved using two EEF1A2-specific phosphorothioated antisense oligonucleotides. Phosphorothioated DNA oligonucleotides were used as these modified oligonucleotides are non-toxic in humans, nuclease resistant, stable in vivo and in vitro, are readily taken up by cells and activate rapid degradation of the mRNA target (Gewirtz et al. Blood 1998 92:712-736; Agrawal et al. Proc. Natl. Acad. Sci. USA 1990 87:1401-1405). However, as will be understood by those of skill in the art upon reading this disclosure, other modifications well known to those skilled in the art can be used.
(§2) Both antisense oligonucleotides decreased EEF1A2 mRNA levels in human Ramos cells. mRNA levels of EEF1A1 were not decreased by administration of these antisense oligonucleotides. A control sequence, GGTTGCTGTGGGCTTGAGT (SEQ ID NO:4) had no effect on mRNA levels of EEF1A2 or EEF1A1 in the human Ramos cells.

[2] = test system: EEF1A2 mRNA; test: EEF1A2 mRNA levels after antisense oligonucleotide treatment of human Ramos cells; type: cell-based
Excerpt: as §1, §2

[3] = test system: NIH 3T3 cells ectopically expressing EEF1A2; test: Drug-induced apoptosis in NIH 3T3 cells ectopically expressing EEF1A2; type: cell-based, mouse
Excerpt: Patients with tumor samples that are positive for EEF1A2 are expected to survive for a shorter period of time as compared to patients with tumor sample negative for EEF1A2. Prognostic information relating to EEF1A2-gene amplification and/or EEF1A2 protein expression can be used to enhance clinical decision-making and to select appropriate treatment regimes. NIH 3T3 cells ectopically expressing EEF1A2 are resistant to the apoptosis-induced by cisplatin and staurosporine. Further, mice lacking EEF1A2 show increased lymphoid apoptosis. Accordingly, it is believed that EEF1A2 modulates the sensitivity of cancer cells to selected treatments.

Row | Compound | effect on EEF1A1 mRNA levels [1] | effect on EEF1A2 mRNA levels [2] | apoptosis induced by the drug [3]
1 | SEQ ID NO:4: control sequence GGTTGCTGTGGGCTTGAGT (listed as DNA, chemistry not given here) | no effect | no effect | 
2 | N.N.[Cl][Pt][Cl] [cisplatin] |  |  | resistant
3 | CN[C@@H]1C[C@H]2O[C@@](C)([C@@H]1OC)n1c3ccccc3c3c4c(c5c6ccccc6n2c5c31)C(=O)NC4 [staurosporine] |  |  | resistant
